Data reported in PubChem BioAssay AID330 (DTP/NCI, 2004).
Values joined by “and” are separate entries in the source; they are usually repeats but may differ in a detail not shown here. Equal entries are not always repeated. Toxic doses and inconclusive results are not listed. How the source made its calls: active means survival T/C of 150% or more; inactive means T/C below 125% in these data.

Test system: P388 leukemia ip, CD2F1 mice, survival T/C
Assay: NCI In Vivo Anticancer Drug Screen. Data for tumor model P388 Leukemia (intraperitoneal) in CD2F1 (CDF1) mice
Details: endpoint: median survival time, higher = longer survival
How it was run: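 Mice carrying the transplanted tumor received test compound or vehicle. Survival was recorded in each group, and the value is the treated-group measurement divided by that of the vehicle-treated control group.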

[1] = dose: 100.0 mg/kg/injection, schedule: Q04DX002 (ip), vehicle: saline with Tween-80
[2] = dose: 200.0 mg/kg/injection, schedule: Q04DX002 (ip), vehicle: saline with Tween-80
[3] = dose: 400.0 mg/kg/injection, schedule: Q04DX002 (ip), vehicle: saline with Tween-80
[4] = dose: 50.0 mg/kg/injection, schedule: Q01DX009 (ip), vehicle: saline with Tween-80
[5] = dose: 100.0 mg/kg/injection, schedule: Q01DX009 (ip), vehicle: saline with Tween-80
[6] = dose: 200.0 mg/kg/injection, schedule: Q01DX009 (ip), vehicle: saline with Tween-80
[7] = dose: 50.0 mg/kg/injection, schedule: Q01DX005 (ip), vehicle: Klucel (hydroxypropylcellulose) (HPC)
[8] = dose: 50.0 mg/kg/injection, schedule: Q01DX009 (ip), vehicle: saline
[9] = dose: 100.0 mg/kg/injection, schedule: Q01DX009 (ip), vehicle: saline
[10] = dose: 400.0 mg/kg/injection, schedule: Q01DX009 (ip), vehicle: saline with Tween-80

Measured: T/C

CCCC/C=C\CCCCCCCCCC1=C(O)C(=O)C=C(OC)C1=O
inactive: dose: 25.5 mg/kg/injection, schedule: Q01DX005 (ip), vehicle: Klucel (hydroxypropylcellulose) (HPC) 116 % of control

N#CC(C(=O)C(=O)Nc1ccc(Cl)cc1)c1c(Cl)cccc1Cl (stereo unspecified)
inactive: [1] 105 % of control | [2] 108 % of control | [3] 97 % of control

Cn1cnc2cc(N3CCOCC3)c(N)cc2c1=O
inactive: dose: 100.0 mg/kg/injection, schedule: Q04DX002 (ip), vehicle: Klucel (hydroxypropylcellulose) (HPC) 106 % of control | dose: 200.0 mg/kg/injection, schedule: Q04DX002 (ip), vehicle: Klucel (hydroxypropylcellulose) (HPC) 102 % of control | dose: 400.0 mg/kg/injection, schedule: Q04DX002 (ip), vehicle: Klucel (hydroxypropylcellulose) (HPC) 102 % of control

Cc1ccc(C)c([N+](=O)[O-])c1C(=O)O
inactive: dose: 100.0 mg/kg/injection, schedule: Q04DX003 (ip), vehicle: saline + alcohol 98 % of control | dose: 200.0 mg/kg/injection, schedule: Q04DX003 (ip), vehicle: saline + alcohol 98 % of control

CC12CC3(C)CC(C(Cl)C(=O)O)(C1)CC(C(Cl)C(=O)O)(C2)C3 (stereo unspecified)
inactive: [4] 103 % of control | [5] 100 % of control | [6] 107 % of control

O=NNc1cnc2ccccc2n1
inactive: dose: 3.12 mg/kg/injection, schedule: Q01DX009 (ip), vehicle: water 106 % of control | dose: 6.25 mg/kg/injection, schedule: Q01DX009 (ip), vehicle: water 103 % of control | dose: 12.5 mg/kg/injection, schedule: Q01DX009 (ip), vehicle: water 106 % of control and 112 % of control | dose: 25.0 mg/kg/injection, schedule: Q01DX009 (ip), vehicle: water 120 % of control and 121 % of control | dose: 50.0 mg/kg/injection, schedule: Q01DX009 (ip), vehicle: water 113 % of control and 87 % of control

CCCCCCCCCCCCCCC1(C(=O)OC)CO1 (stereo unspecified)
inactive: dose: 6.25 mg/kg/injection, schedule: Q01DX005 (ip), vehicle: Klucel (hydroxypropylcellulose) (HPC) 94 % of control | dose: 12.5 mg/kg/injection, schedule: Q01DX005 (ip), vehicle: Klucel (hydroxypropylcellulose) (HPC) 94 % of control | [7] 102 % of control

COc1ccc(/C=C/c2ccnnc2)c(OC)c1OC
inactive: dose: 25.0 mg/kg/injection, schedule: Q01DX009 (ip), vehicle: saline 102 % of control | [8] 102 % of control | [9] 105 % of control

CS/C(N)=N\NCCC(=O)Nc1c(C)cccc1C
inactive: [1] 100 % of control | [2] 91 % of control | [3] 91 % of control

[Cl][Hg][Cl]
inactive: dose: 0.94 mg/kg/injection, schedule: Q01DX005 (ip), vehicle: saline 95 % of control | dose: 1.88 mg/kg/injection, schedule: Q01DX005 (ip), vehicle: saline 101 % of control

CCCn1cnc2c(sc3ccccc32)c1=O
inactive: [7] 101 % of control | dose: 100.0 mg/kg/injection, schedule: Q01DX005 (ip), vehicle: Klucel (hydroxypropylcellulose) (HPC) 93 % of control | dose: 200.0 mg/kg/injection, schedule: Q01DX005 (ip), vehicle: Klucel (hydroxypropylcellulose) (HPC) 93 % of control

CCOC(=O)C1OC(n2cnc3c(N)ncnc32)C(O)C1O (stereo unspecified)
inactive: [4] 96 % of control | [8] 103 % of control | [5] 98 % of control | [9] 100 % of control and 106 % of control | [6] 124 % of control | dose: 200.0 mg/kg/injection, schedule: Q01DX009 (ip), vehicle: saline 101 % of control and 106 % of control | [10] 117 % of control | dose: 400.0 mg/kg/injection, schedule: Q01DX009 (ip), vehicle: saline 111 % of control

Clc1nc2n[nH]nc2nc1Cl
inactive: dose: 3.13 mg/kg/injection, schedule: Q04DX003 (ip), vehicle: saline 100 % of control | dose: 6.25 mg/kg/injection, schedule: Q04DX003 (ip), vehicle: saline 90 % of control | dose: 12.5 mg/kg/injection, schedule: Q04DX003 (ip), vehicle: saline 95 % of control

N=Cc1c(O)n(C2CCCCC2)c(=O)n(C2CCCCC2)c1=O
inactive: [5] 100 % of control | [6] 95 % of control | [10] 100 % of control

C[n+]1cccc(C(=S)[S-])c1
inactive: dose: 12.5 mg/kg/injection, schedule: Q01DX009 (ip), vehicle: saline with Tween-80 100 % of control | dose: 25.0 mg/kg/injection, schedule: Q01DX009 (ip), vehicle: saline with Tween-80 95 % of control | [4] 90 % of control

CN1C(=S)NC2C(O)C(O)C(CO)OC21 (stereo unspecified)
inactive: dose: 50.0 mg/kg/injection, schedule: Q01DX005 (ip), vehicle: saline with Tween-80 97 % of control | dose: 100.0 mg/kg/injection, schedule: Q01DX005 (ip), vehicle: saline with Tween-80 99 % of control | dose: 200.0 mg/kg/injection, schedule: Q01DX005 (ip), vehicle: saline with Tween-80 99 % of control
